From patent publication US6025330A, “Inhibitors of fibrin cross-linking and/or transglutaminases” (BioPharm Research & Development Ltd., priority 1995, dated 2000)
Blank lines part the entries; values can stand above or below the molecule they belong to. No end group written: not given here.

Key:
[1] = biological target: T1, human plasma factor XIIIa (Homo sapiens, UniProt P00488); assay: production of ammonia from casein on ethylamine incorporation (glutamate dehydrogenase/NADH coupled); format: biochemical; details: control 4.14
T1 construct: from tissue; host or cells: human plasma (defibrinogenated, not purified further)
T1 sequence (P00488 39-732 limits assumed): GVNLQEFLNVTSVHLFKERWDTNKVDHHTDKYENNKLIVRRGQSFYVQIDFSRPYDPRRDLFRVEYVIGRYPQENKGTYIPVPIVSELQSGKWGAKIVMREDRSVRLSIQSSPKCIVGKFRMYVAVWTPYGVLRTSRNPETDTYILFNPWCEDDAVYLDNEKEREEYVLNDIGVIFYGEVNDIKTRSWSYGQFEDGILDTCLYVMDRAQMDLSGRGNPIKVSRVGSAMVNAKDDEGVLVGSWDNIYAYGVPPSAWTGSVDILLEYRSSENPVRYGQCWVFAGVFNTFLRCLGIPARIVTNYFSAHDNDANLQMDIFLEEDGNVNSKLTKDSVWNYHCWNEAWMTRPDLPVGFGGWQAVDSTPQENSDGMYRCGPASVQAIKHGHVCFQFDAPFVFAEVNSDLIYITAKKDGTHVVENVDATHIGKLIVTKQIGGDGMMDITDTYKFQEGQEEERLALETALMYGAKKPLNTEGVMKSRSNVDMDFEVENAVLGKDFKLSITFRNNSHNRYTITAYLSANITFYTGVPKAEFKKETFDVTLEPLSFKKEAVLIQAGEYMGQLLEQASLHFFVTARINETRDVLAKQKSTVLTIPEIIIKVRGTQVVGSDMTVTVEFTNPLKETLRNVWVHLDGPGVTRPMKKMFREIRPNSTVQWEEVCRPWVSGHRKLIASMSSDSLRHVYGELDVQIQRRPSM
Procedure: The transglutaminase activity of human plasma factor XIIIa was measured spectrophotometrically by a modification of the method of Muszbek, Polgar and Fesus; "Kinetic determination of blood coagulation factor XIII in plasma." Clin Chem 31 (1985) pp. 35-40. This method measures the production of ammonia by linking it through the glutamate dehydrogenase reaction to NADH oxidation which can be monitored by the change in absorption at 340 nm. Factor XIII was activated by incubating defibrinated human plasma (2 ml) and 200 mM CaCl2 (0.1 ml) with 1000 unit/ml bovine thrombin (0.1 ml) at 37° C. After 15 min the reaction was stopped by the addition of 260 antithrombin units of hirudin. The reaction cuvette contained: 2.5 mM dithiothreitol (0.1 ml), 40 mg/ml dephosphorylated β-casein (0.05 ml), 70 mM ethylamine (0.1 ml), 12 mM sodium 2-ketoglutarate (0.1 ml), 4 mM NADH (0.1 ml), 1.2 mM ADP (0.1 ml), 40 unit/ml glutamate dehydrogenase (0.1 ml), 70 mM HEPES buffer pH7.5 (0.25 ml) and this was placed in a spectrophotometer at 20° C. All components were dissolved in 70 mM HEPES buffer pH 7.5 where possible. The reaction was started by the addition of the activated factor XIII (0.2 ml) and monitored at 340 nm. The assay was validated with the use of factor XIII-deficient plasma (Sigma).
Test samples were added in 0.1 ml of the HEPES buffer to the reaction cuvette. […]

factor XIIIa = assay: clot solubility assay (fibrin clot in urea); format: biochemical, bovine; details: iodoacetamide 100 μM, lowered absorbance = clot soluble in urea
Procedure: In a first experiment A, the proboscis, anterior and posterior salivary glands of a leech of the species Haementeria ghilianii were homogenised together in a Potter homogeniser in 10 mM Tris HCl, 0.85% w/v NaCl pH7.0 (1 ml), and centrifuged at 13000 rpm. The supernatant was assayed in a clot solubility assay similar to that of Tymiak, Tuttle, Kimball, Wang and Lee "A simple and rapid screen for inhibitors of factor XIIIa". J. Antibiotics 46 (1993) pp. 204-206. In a second experiment B, the proboscis, anterior and posterior salivary glands were dissected from a leech of the species Haementeria ghilianii and homogenised separately in 0.2 ml aliquots of the buffer. The effect was compared with extracts of the proboscis, anterior and posterior salivary glands from two leeches of the species Haementeria officinalis prepared in 0.2 ml buffer. The test samples (30 μl) were added to a solution of 10 mg/ml crude bovine fibrinogen which contains factor XIII (30 μl). The reaction was started by adding 6.25 units/ml bovine thrombin containing 9 mM CaCl2 (40 μl). A clot formed in 15 min when 8M urea (160 μl) was added and left in contact with the clot. After 30 min, the absorbance resulting from the clot's opalescence was read at 405 nm. Lowered absorbance indicates solubility of the clot resulting from inhibition of cross-linking. […] The numerical values quoted in the table are absorbance at 405 nm.

thrombin = thrombin chromogenic substrate assay (S2238); format: biochemical; details: 0.046 μg/ml
Procedure: (§1) The effect of Tridegin variant 1 purified as in Example 6 was tested on the coagulation enzyme, thrombin. with a chromogenic substrate assay. 1 mM S2238 was incubated in 50 mM Tris HCl pH 8.3 and the reaction was started by adding thrombin 0.15 U/ml final concentration. The reaction was monitored in a spectrophotometer at 405 nm.

human factor Xa = human factor Xa (Homo sapiens, UniProt P00742); assay: factor Xa chromogenic substrate assay (S2765); format: biochemical; details: 0.046 μg/ml
human factor Xa, sequence (P00742 41-179 limits assumed): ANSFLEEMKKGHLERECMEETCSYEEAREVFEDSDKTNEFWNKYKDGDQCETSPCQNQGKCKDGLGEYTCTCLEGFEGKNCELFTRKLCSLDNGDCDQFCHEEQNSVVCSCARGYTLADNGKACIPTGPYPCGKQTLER
human factor Xa, sequence (P00742 235-488 limits assumed): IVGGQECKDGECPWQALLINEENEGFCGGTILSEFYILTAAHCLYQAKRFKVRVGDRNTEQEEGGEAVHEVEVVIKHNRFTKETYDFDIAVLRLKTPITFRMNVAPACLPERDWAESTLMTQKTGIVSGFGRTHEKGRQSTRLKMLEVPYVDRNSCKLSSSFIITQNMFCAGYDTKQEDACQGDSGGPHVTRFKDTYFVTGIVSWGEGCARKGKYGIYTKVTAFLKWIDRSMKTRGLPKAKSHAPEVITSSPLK
Procedure: as §1
The effect of the Tridegin purified as in Example 6 was tested on factor Xa. 2 mM S2765 was incubated in 50 mM Tris HCl pH 8.3 and the reaction was started by adding human factor Xa. The assay was performed as in Example 11. […] This confirms that, not only is the transglutaminase inhibitor different from previously known inhibitors of factor Xa, but the methods exemplified to purify the transglutaminase inhibitor successfully remove the factor Xa inhibitors.

Change in absorbance ([1]; 77 mM in cuvette): 0.024 mAbs/min
Molecule: O=C(O)CN(CCOCCOCCN(CC(=O)O)CC(=O)O)CC(=O)O [EGTA]

Molecule: NC(=O)CI [Iodoacetamide]
absorbance at 405 nm, Experiment A (factor XIIIa; Tris buffer 0.74): 0.26 | absorbance at 405 nm, Experiment B (factor XIIIa; Tris buffer 0.83): 0.42 | Change in absorbance ([1]; 0.077 mM in cuvette): 0.356 mAbs/min

Molecule: Hirudin
inhibitory effect on thrombin (thrombin): 95% | Rate of Reaction (thrombin; control 49.8): 2.63 mAbs/min

inhibition of factor Xa (human factor Xa): 89.9% | Reaction Rate (human factor Xa; control 49.8): 5.53 mAbs/min
Molecule: rTAP: recombinant tick anticoagulant peptide, a known inhibitor of factor Xa (YNRLCIKPRDWIDECDSNEGGERAYFRNGKGGCDSFWICPEDHTGADYYSSYRDCFNACI; ends and bridges not checked; cysteine pairing not given here; UniProt P17726 1-60, looked up)
